Assay results: US7964624B1, “Inhibitors of serine proteases” (priority 2005, dated 2011)

Target: T1, HCV NS3 protease domain (Hepatitis C virus genotype 1b, UniProt Q9WMX2)
T1 construct: The first 181 amino acids of NS3 (residues 1027-1207 of the viral polyprotein); hexa-histidine (C); made in house; host or cells: E. coli BL21/DE3 pLysS
Experiment: biochemical
Conditions: Enzyme Assay 1 (HCV NS3 Protease Domain Peptide Cleavage Assay) activity, apparent Ki class

T1 sequence (Q9WMX2 1027-1207, other chains not shown): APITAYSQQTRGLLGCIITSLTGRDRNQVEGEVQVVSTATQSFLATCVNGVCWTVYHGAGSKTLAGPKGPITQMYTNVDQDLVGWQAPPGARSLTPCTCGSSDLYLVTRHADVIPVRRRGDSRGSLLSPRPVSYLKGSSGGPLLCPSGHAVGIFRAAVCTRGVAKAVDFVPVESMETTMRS

SMILES	Ki
CC(C)(C)NC(=O)N[C@H](C(=O)N1C[C@@]2(CC(c3cccc(Cl)c3)=NO2)C[C@H]1C(=O)NC(CC1CCC1)C(=O)C(N)=O)C(C)(C)C (stereo partly shown) [Compound 247]	< 100 nM
CCC[C@H](NC(=O)[C@@H]1C[C@]2(CC(c3ccccc3)=NO2)CN1C(=O)[C@@H](NC(=O)NCC1CCCCC1)C(C)(C)C)C(=O)C(=O)NC1CC1 [Compound 249]	100 to 500 nM
CCC[C@H](NC(=O)[C@@H]1C[C@]2(CC(Cc3ccccc3)=NO2)CN1C(=O)[C@@H](NC(=O)O[C@H]1CCOC1)C(C)(C)C)C(=O)C(=O)NC1CC1 [Compound 251]	> 500 nM
CCC[C@H](NC(=O)[C@@H]1C[C@]2(CC(c3cccc(Cl)c3)=NO2)CN1C(=O)[C@@H](NC(=O)OC(C)Cc1cccs1)C(C)(C)C)C(=O)C(=O)NC1CC1 (stereo partly shown) [Compound 254]	100 to 500 nM
CCC[C@H](NC(=O)[C@@H]1C[C@]2(CC(c3ccc(CC)o3)=NO2)CN1C(=O)[C@@H](NC(=O)CC1CCCCC1)C(C)(C)C)C(=O)C(=O)NC1CC1 [Compound 256]	100 to 500 nM
CCC[C@H](NC(=O)[C@@H]1C[C@]2(CC(c3cccc(-c4ccccc4)c3)=NO2)CN1C(=O)[C@@H](NC(=O)O[C@H]1CCOC1)C(C)(C)C)C(=O)C(=O)NC1CC1 [Compound 257]	100 to 500 nM
CCC[C@H](NC(=O)[C@@H]1C[C@@]2(CC(c3cc(F)cc(C(F)(F)F)c3)=NO2)CN1C(=O)[C@@H](NC(=O)O[C@H]1CCOC1)C(C)(C)C)C(=O)C(=O)NC1CC1 [Compound 258]	> 500 nM
CCC[C@H](NC(=O)[C@@H]1C[C@]2(CC(c3cccc(Cl)c3)=NO2)CN1C(=O)[C@@H](NC(=O)NCc1cc(OC)c(OC)c(OC)c1)C(C)(C)C)C(=O)C(=O)NC1CC1 [Compound 259]	100 to 500 nM
CCC[C@H](NC(=O)[C@@H]1C[C@]2(CC(c3cccc(Cl)c3)=NO2)CN1C(=O)[C@@H](NC(=O)OCCOC)C(C)(C)C)C(=O)C(=O)NC1CC1 [Compound 260]	100 to 500 nM
CCC[C@H](NC(=O)[C@@H]1C[C@]2(CC(c3cccc(Cl)c3)=NO2)CN1C(=O)[C@@H](NC(=O)NC1CCN(C(=O)OCc2ccccc2)CC1)C(C)(C)C)C(=O)C(=O)NC1CC1 [Compound 261]	100 to 500 nM
CCC[C@H](NC(=O)[C@@H]1C[C@]2(CC(c3cccc(Cl)c3)=NO2)CN1C(=O)Oc1ccc([N+](=O)[O-])cc1)C(=O)C(=O)NC1CC1 [Compound 262]	> 500 nM
CCC[C@H](NC(=O)[C@@H]1C[C@]2(CC(c3ccc(F)c(Cl)c3)=NO2)CN1C(=O)[C@@H](NC(=O)CC1CCOCC1)C(C)(C)C)C(=O)C(=O)NC1CC1 [Compound 270]	100 to 500 nM
CCC[C@H](NC(=O)[C@@H]1C[C@]2(CC(c3cccc(Cl)c3)=NO2)CN1C(=O)[C@@H](NC(=O)CC1CCCCC1)C(C)(C)C)C(=O)C(N)=O [Compound 273]	100 to 500 nM
CCC[C@H](NC(=O)[C@@H]1C[C@]2(CC(c3cccc(Cl)c3)=NO2)CN1C(=O)CN1C[C@H]2CCCC[C@H]2C[C@H]1C(=O)NC(C)(C)C)C(=O)C(=O)NC1CC1 [Compound 276]	> 500 nM
CCC[C@H](NC(=O)[C@@H]1C[C@]2(CC(c3ccccc3Oc3ccc(OC)cc3)=NO2)CN1C(=O)[C@@H](NC(=O)OCc1ccccc1)C(C)(C)C)C(=O)C(=O)NC1CC1 [Compound 278]	> 500 nM
CCC[C@H](NC(=O)[C@@H]1C[C@]2(CC(c3ccc(OC)c(Cl)c3)=NO2)CN1C(=O)[C@@H](NC(=O)CC1CCOCC1)C(C)(C)C)C(=O)C(=O)NC1CC1 [Compound 279]	100 to 500 nM
CCC[C@H](NC(=O)[C@@H]1C[C@]2(CC(c3ccccc3)=NO2)CN1C(=O)[C@@H](NC(=O)[C@@H](NC(=O)c1cnccn1)C1CCCCC1)C(C)(C)C)C(=O)C(=O)NC1CC1 [Compound 281]	< 100 nM
CCC[C@H](NC(=O)[C@@H]1C[C@]2(CC(c3ccccc3)=NO2)CN1C(=O)[C@@H](NC(=O)Cc1cccnc1)C(C)(C)C)C(=O)C(=O)NC1CC1 [Compound 283]	> 500 nM
CCC[C@H](NC(=O)[C@@H]1C[C@]2(CC(c3cc(Cl)cc(Cl)c3)=NO2)CN1C(=O)[C@@H](NC(=O)CC1CCOCC1)C(C)(C)C)C(=O)C(=O)NC1CC1 [Compound 285]	100 to 500 nM
